Measurements reported in publication PMC12073177 (Molecules, 2025).

What was measured:
[1] = MTT cell viability assay in RAW 264.7 cells; format: cell-based, murine; settings: mouse, RAW 264.7 macrophage cells, RAW 264.7, MTT; for viability at 24 h: tested concentrations up to 40 μM
Method: (§1) Absorbance was measured at 570 nm using a microplate reader.
(§2) All experiments were performed in triplicate.

[2] = DPPH radical scavenging assay (antioxidant activity); format: biochemical; settings: in methanol, 30 min, absorbance at 540 nm
Method: Absorbance was measured at 540 nm. All experiments were conducted in triplicate.

[3] = system: nitric oxide (NO) production in LPS-stimulated RAW 264.7 cells; experiment: Nitric oxide production in LPS-stimulated RAW 264.7 cells (Griess reagent); format: cell-based, murine; settings: for effect on NO production (result in words): 5, 10, 20 and 40 µM, LPS-stimulated RAW 264.7; for reduction of NO production: 40 µM, relative to the LPS-treated group, LPS 24 h
Method: NO levels in the culture supernatants were quantified using the Griess reagent assay, and absorbance was measured at 540 nm.
RAW 264.7 cells were maintained in Dulbecco’s Modified Eagle Medium (DMEM, Sigma-Aldrich, St. Louis, MO, USA) supplemented with 10% heat-inactivated fetal bovine serum (FBS, Invitrogen, Burlington, ON, Canada) and 1% (w/v) antibiotic-antimycotic solution (Invitrogen, Grand Island, NY, USA). The cells were cultured in a humidified incubator at 37 °C under 95% air and 5% CO2 conditions.
The production of NO was quantified by measuring nitrite levels in the culture supernatants using the Griess reagent (1% sulfanilamide, 0.1% N-(1-naphthyl)-ethylenediamine dihydrochloride, and 5% phosphoric acid). […] The cells were then stimulated with 0.5 μg/mL lipopolysaccharide (LPS, Sigma-Aldrich, CA, USA) for 24 h in a total volume of 200 μL. After incubation, 100 μL of culture supernatant was mixed with an equal volume of Griess reagent and incubated at room temperature for 5 min. Sodium nitrite was used as a standard for calibration, and nitrite concentration was determined by measuring absorbance at 540 nm. All experiments were conducted in triplicate.

β-secretase (BACE-1) = target: T1, β-secretase (BACE-1) (Homo sapiens, UniProt P56817); experiment: BACE-1 FRET-based inhibition assay; format: biochemical; settings: 60 min at room temperature, mean ± SD, ND = no detectable inhibitory activity
T1 construct: purchased Thermo Fisher Scientific, San Diego, CA, USA
T1 sequence (P56817 46-501): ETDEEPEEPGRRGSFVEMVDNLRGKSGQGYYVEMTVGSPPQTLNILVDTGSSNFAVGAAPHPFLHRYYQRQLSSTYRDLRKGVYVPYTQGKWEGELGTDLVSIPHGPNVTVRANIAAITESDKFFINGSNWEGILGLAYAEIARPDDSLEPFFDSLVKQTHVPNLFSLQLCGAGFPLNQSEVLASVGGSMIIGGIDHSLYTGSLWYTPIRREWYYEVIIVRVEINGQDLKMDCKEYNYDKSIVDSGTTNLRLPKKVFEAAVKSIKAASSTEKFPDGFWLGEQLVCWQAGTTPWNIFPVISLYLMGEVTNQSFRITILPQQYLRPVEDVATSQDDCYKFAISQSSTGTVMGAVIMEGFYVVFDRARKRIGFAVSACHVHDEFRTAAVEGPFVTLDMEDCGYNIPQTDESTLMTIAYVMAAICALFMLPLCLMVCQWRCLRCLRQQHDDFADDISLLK
Method: The reaction was initiated by adding 10 µL of a 3× BACE-1 enzyme solution. Plates were incubated at room temperature for 60 min in the dark. After incubation, 10 µL of 2.5 mM sodium acetate was added to terminate the reaction. Fluorescence was measured using a multimode plate reader (Multiskan™ GO, Thermo Scientific, Waltham, MA, USA) with an excitation wavelength of 545 nm and an emission wavelength of 585 nm. The IC50 values were determined by plotting relative fluorescence units per hour (RFU/h) against the logarithmic inhibitor concentrations. All experiments were performed in triplicate.

NLRP3 = NLRP3 ELISA in LPS-stimulated RAW 264.7 cells; format: cell-based, murine; settings: for inhibition at 40 µM: Mus musculus, RAW264.7, read-out: NLRP3 inhibition rate; for NLRP3 inhibition (result in words): 40 µM
Method: For evaluating the NLRP3 inhibitory activity, the highest concentration of 40 µM was selected, as this concentration had previously been confirmed to maintain cell viability (Section 2.4.1).
To assess NLRP3 inflammasome activation, RAW 264.7 macrophages were seeded at a density of 5 × 10^5 cells/well in 96-well plates. […] The levels of NLRP3 in the culture supernatant were quantified using a commercially available ELISA kit (Lsbio, WA, USA) according to the manufacturer’s protocol. Absorbance was measured at 450 nm, and NLRP3 concentrations were determined using a standard curve, expressed in ng/mL. To ensure statistical accuracy, all experiments were performed in duplicate.

[4] = target: T2, tau protein (tau-BiFC SH-SY5Y cell line) (Homo sapiens, UniProt P10636); experiment: Tau-BiFC SH-SY5Y anti-tau aggregation assay; format: cell-based; settings: 10 μM, 24 h, compared to the control group
T2 construct: split fluorescent protein fragments for BiFC (complementing N- and C-terminal halves); expressed in transfected cells; host or cells: SH-SY5Y
T2 sequence (P10636 1-441 isoform P10636-8): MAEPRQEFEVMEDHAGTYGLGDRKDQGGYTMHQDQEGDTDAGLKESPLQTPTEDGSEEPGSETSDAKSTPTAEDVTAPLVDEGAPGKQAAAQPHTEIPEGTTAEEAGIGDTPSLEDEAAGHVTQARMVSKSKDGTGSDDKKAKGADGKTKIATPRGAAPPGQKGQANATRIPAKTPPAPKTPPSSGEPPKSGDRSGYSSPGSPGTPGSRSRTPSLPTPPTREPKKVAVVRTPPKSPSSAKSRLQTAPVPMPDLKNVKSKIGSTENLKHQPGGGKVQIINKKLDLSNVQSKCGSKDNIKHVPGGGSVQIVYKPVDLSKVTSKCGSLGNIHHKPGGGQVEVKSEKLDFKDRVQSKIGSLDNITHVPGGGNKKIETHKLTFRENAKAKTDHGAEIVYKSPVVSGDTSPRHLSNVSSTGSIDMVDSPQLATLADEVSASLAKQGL
Method: Cells were maintained at 37 °C in a humidified incubator with 5% CO2.

RAW 264.7 cells = experiment: MTT cell viability assay in RAW 264.7 cells; format: cell-based, murine; settings: RAW 264.7, MTT, 24 h, 5-40 μM
Method: as §1, §2

Structure (SMILES) | viability at 24 h [1] | IC50 [2] | effect on NO production (result in words) [3] | IC50 (β-secretase (BACE-1)) | inhibition at 40 µM (NLRP3) | reduction of NO production [3] | anti-tau aggregation effect (BiFC fluorescence, result in words) [4] | cytotoxicity (result in words) (RAW 264.7 cells) | BACE-1 IC50 (β-secretase (BACE-1)) | viability at 24 h, 40 µM [1] | NLRP3 inhibition (result in words) (NLRP3)
NC(CCC(=O)NNc1ccccc1C(F)(F)F)C(=O)O (stereo not drawn) [RA-2CF3, N^5-((2-(triflouromethyl)phenyl)amino)glutamine] | > 100% | 3 ± 0.03 µM | moderate NO-reducing effect | 11.6 ± 14 µM | ≥ 20% |  |  |  |  |  | 
COc1ccccc1NNC(=O)CC[C@H](N)C(=O)O [RA-2OMe, N^5-((2-methoxyphenyl)amino)glutamine] | > 100% | 2.81 ± 0.03 µM | concentration-dependent reduction in NO levels | 7.97 ± 2.46 µM | ≥ 20% | 25~35% | moderate inhibitory effects |  |  |  | 
N[C@@H](CCC(=O)NNc1ccc2ccccc2n1)C(=O)O [RA-2Q, N^5-(quinolin-2-ylamino)glutamine] |  | 9.7 ± 0.32 µM | did not significantly suppress NO production |  | ≥ 20% |  | significant reductions in tau aggregation | no significant reduction in cell survival | no detectable BACE-1 inhibitory activity (ND) |  | 
NC(CCC(=O)NNc1cccc(C(F)(F)F)c1)C(=O)O (stereo not drawn) [RA-3CF3, N^5-((3-(triflouromethyl)phenyl)amino)glutamine] | > 100% | 31.7 ± 14.6 µM | concentration-dependent reduction in NO levels | 0.33 ± 0.79 µM | 10 to 15% |  | did not show significant anti-tau effects |  |  |  | 
NC(CCC(=O)NNc1ccc(OC(F)(F)F)cc1)C(=O)O (stereo not drawn) [RA-4OCF3, N^5-((4-(triflouromethoxy)phenyl)amino)glutamine] | > 100% | 3.77 ± 0.09 µM | concentration-dependent reduction in NO levels | 9.89 ± 13.6 µM | ≥ 20% |  |  |  |  |  | 
COc1ccc(NNC(=O)CC[C@H](N)C(=O)O)cc1 [RA-4OMe, N^5-((4-methoxyphenyl)amino)glutamine] | > 100% | 5.49 ± 0.63 µM | concentration-dependent reduction in NO levels | 25 ± 5.72 µM | ≥ 20% | 25~35% | moderate inhibitory effects |  |  |  | 
CN(C)NC(=O)CC[C@H](N)C(=O)O [RA-DMe, N^5-(dimethylamino)glutamine] |  | 598 µM | moderate NO-reducing effect |  |  |  | did not exhibit significant anti-tau aggregation activity |  | no detectable BACE-1 inhibitory activity (ND) | > 80% | no significant NLRP3-inhibitory effects
CC(C)NNC(=O)CC[C@H](N)C(=O)O [RA-IPr, N^5-(Isopropylamino)glutamine] |  | 2580 ± 359 µM | did not significantly suppress NO production |  |  |  | did not exhibit significant anti-tau aggregation activity | no significant reduction in cell survival | no detectable BACE-1 inhibitory activity (ND) |  | no significant NLRP3-inhibitory effects
NC(CCC(=O)NNc1cccc2ccccc12)C(=O)O (stereo not drawn) [RA-NAP] |  | 1.77 ± 0.12 µM | moderate NO-reducing effect | 0.66 ± 1.05 µM | 10 to 15% |  | significant reductions in tau aggregation |  |  | > 80% | 
N[C@@H](CCC(=O)NNc1ccccn1)C(=O)O [RA-PYD, N^5-(pyridin-2-ylamino)glutamine] |  | 7.4 ± 3.54 µM | did not significantly suppress NO production | 0.32 ± 0.08 µM | ≥ 20% |  | significant reductions in tau aggregation | no significant reduction in cell survival |  |  | 
